# Laboratory results: PubChem BioAssay (NCI)
#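 GI50 = concentration required for 50% inhibition of growth. The concentration for full growth arrest is given as TGI.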
# Tests used:
# Assay in all cases: DTP human tumour cell line panel, 384-well format
# MDA-MB-468 breast = system: MDA-MB-468 breast
# SW-620 colon = system: SW-620 colon
# 786-0 renal = system: 786-0 renal
# RXF 393 renal = system: RXF 393 renal
# HCT-116 colon = system: HCT-116 colon
# A549 NSCLC = system: A549 NSCLC
# SNB-19 CNS = system: SNB-19 CNS
# CAKI-1 renal = system: CAKI-1 renal
# MDA-MB-435 melanoma = system: MDA-MB-435 melanoma
# DU-145 prostate = system: DU-145 prostate
# NCI-H226 lung = system: NCI-H226 lung
# UACC-257 melanoma = system: UACC-257 melanoma
# OVCAR-5 ovarian = system: OVCAR-5 ovarian
# NCI-H322M lung = system: NCI-H322M lung
# MALME-3M melanoma = system: MALME-3M melanoma
# U251 glioblastoma = system: U251 glioblastoma
# NCI-H23 lung = system: NCI-H23 lung
# SK-OV-3 ovarian = system: SK-OV-3 ovarian
# M14 melanoma = system: M14 melanoma
# CCRF-CEM leukemia = system: CCRF-CEM leukemia
# MDA-MB-231 breast = system: MDA-MB-231 breast
# HT29 colon = system: HT29 colon
# KM12 colon = system: KM12 colon
# NCI-H460 NSCLC = system: NCI-H460 NSCLC
# MCF7 breast = system: MCF7 breast
# SK-MEL-28 melanoma = system: SK-MEL-28 melanoma
# SF-295 CNS = system: SF-295 CNS
# MOLT-4 leukemia = system: MOLT-4 leukemia
# PC-3 prostate = system: PC-3 prostate
# TK-10 renal = system: TK-10 renal
# OVCAR-4 ovarian = system: OVCAR-4 ovarian
# SK-MEL-2 melanoma = system: SK-MEL-2 melanoma
# NCI-H522 lung = system: NCI-H522 lung
# HL-60(TB) leukemia = system: HL-60(TB) leukemia
# K-562 leukemia = system: K-562 leukemia
# A498 renal = system: A498 renal
# UACC-62 melanoma = system: UACC-62 melanoma
# BT-549 breast = system: BT-549 breast
# SK-MEL-5 melanoma = system: SK-MEL-5 melanoma
# IGROV1 ovarian = system: IGROV1 ovarian
# T-47D breast = system: T-47D breast
# HCC-2998 colon = system: HCC-2998 colon
# SF-268 CNS = system: SF-268 CNS
# ACHN renal = system: ACHN renal
# SN12C renal = system: SN12C renal
# OVCAR-8 ovarian = system: OVCAR-8 ovarian
# HOP-62 NSCLC = system: HOP-62 NSCLC
# NCI/ADR-RES ovarian = system: NCI/ADR-RES ovarian
# UO-31 renal = system: UO-31 renal
# RPMI-8226 leukemia = system: RPMI-8226 leukemia
# EKVX NSCLC = system: EKVX NSCLC
# HCT-15 colon = system: HCT-15 colon
# LOX IMVI melanoma = system: LOX IMVI melanoma
# COLO 205 colon = system: COLO 205 colon
# SF-539 CNS = system: SF-539 CNS
# HOP-92 NSCLC = system: HOP-92 NSCLC
# SNB-75 CNS = system: SNB-75 CNS
# HS 578T breast = system: HS 578T breast
# OVCAR-3 ovarian = system: OVCAR-3 ovarian
smiles,measurement,setting,value
Cc1c(NC(=O)c2cc(C(N)=O)nc3cc(F)ccc23)c(C(F)(F)F)nn1Cc1ccc(C#N)cc1,GI50,MDA-MB-468 breast,2.66 µM
same,TGI,MDA-MB-468 breast,13.4 µM
same,GI50,SW-620 colon,4.76 µM
same,TGI,SW-620 colon,33.9 µM
same,GI50,786-0 renal,0.319 µM
same,TGI,786-0 renal,12.3 µM
same,GI50,RXF 393 renal,0.693 µM
same,TGI,RXF 393 renal,5.32 µM
same,GI50,HCT-116 colon,1.97 µM
same,TGI,HCT-116 colon,12.2 µM
same,GI50,A549 NSCLC,2 µM
same,TGI,A549 NSCLC,15.6 µM
same,GI50,SNB-19 CNS,1.81 µM
same,TGI,SNB-19 CNS,12.3 µM
same,GI50,CAKI-1 renal,8.33 µM
same,TGI,CAKI-1 renal,37.4 µM
same,GI50,MDA-MB-435 melanoma,17.1 µM
same,TGI,MDA-MB-435 melanoma,> 100 µM
same,GI50,DU-145 prostate,0.0752 µM
same,TGI,DU-145 prostate,2.43 µM
same,GI50,NCI-H226 lung,0.0842 µM
same,TGI,NCI-H226 lung,8.1 µM
same,GI50,UACC-257 melanoma,33.4 µM
same,TGI,UACC-257 melanoma,> 100 µM
same,GI50,OVCAR-5 ovarian,2.81 µM
same,TGI,OVCAR-5 ovarian,9.74 µM
same,GI50,NCI-H322M lung,1.71 µM
same,TGI,NCI-H322M lung,12.9 µM
same,GI50,MALME-3M melanoma,2.94 µM
same,TGI,MALME-3M melanoma,16.4 µM
same,GI50,U251 glioblastoma,0.974 µM
same,TGI,U251 glioblastoma,12.9 µM
same,GI50,NCI-H23 lung,2.93 µM
same,TGI,NCI-H23 lung,16.5 µM
same,GI50,SK-OV-3 ovarian,0.132 µM
same,TGI,SK-OV-3 ovarian,0.313 µM
same,GI50,M14 melanoma,11.1 µM
same,TGI,M14 melanoma,24.9 µM
same,GI50,CCRF-CEM leukemia,0.0337 µM
same,TGI,CCRF-CEM leukemia,10.3 µM
same,GI50,MDA-MB-231 breast,5.69 µM
same,TGI,MDA-MB-231 breast,41.6 µM
same,GI50,HT29 colon,0.134 µM
same,TGI,HT29 colon,1.31 µM
same,GI50,KM12 colon,0.142 µM
same,TGI,KM12 colon,1.9 µM
same,GI50,NCI-H460 NSCLC,2.87 µM
same,TGI,NCI-H460 NSCLC,16.3 µM
same,GI50,MCF7 breast,0.198 µM
same,TGI,MCF7 breast,1.22 µM
same,GI50,SK-MEL-28 melanoma,18.3 µM
same,TGI,SK-MEL-28 melanoma,> 100 µM
same,GI50,SF-295 CNS,1.07 µM
same,TGI,SF-295 CNS,5.5 µM
same,GI50,MOLT-4 leukemia,0.11 µM
same,TGI,MOLT-4 leukemia,2.02 µM
same,GI50,PC-3 prostate,0.0532 µM
same,TGI,PC-3 prostate,0.276 µM
same,GI50,TK-10 renal,1.37 µM
same,TGI,TK-10 renal,5.06 µM
same,GI50,OVCAR-4 ovarian,0.0803 µM
same,TGI,OVCAR-4 ovarian,1.7 µM
same,GI50,SK-MEL-2 melanoma,17.4 µM
same,TGI,SK-MEL-2 melanoma,35.5 µM
same,GI50,NCI-H522 lung,4.54 µM
same,TGI,NCI-H522 lung,27.8 µM
same,GI50,HL-60(TB) leukemia,1.06 µM
same,TGI,HL-60(TB) leukemia,2.38 µM
same,GI50,K-562 leukemia,5.92 µM
same,TGI,K-562 leukemia,22.3 µM
same,GI50,A498 renal,0.742 µM
same,TGI,A498 renal,15.4 µM
same,GI50,UACC-62 melanoma,2.78 µM
same,TGI,UACC-62 melanoma,15.4 µM
same,GI50,BT-549 breast,0.605 µM
same,TGI,BT-549 breast,12.1 µM
same,GI50,SK-MEL-5 melanoma,12.3 µM
same,TGI,SK-MEL-5 melanoma,54.8 µM
same,GI50,IGROV1 ovarian,1.69 µM
same,TGI,IGROV1 ovarian,8.2 µM
same,GI50,T-47D breast,0.151 µM
same,TGI,T-47D breast,11.5 µM
same,GI50,HCC-2998 colon,0.0956 µM
same,TGI,HCC-2998 colon,1.69 µM
same,GI50,SF-268 CNS,6.04 µM
same,TGI,SF-268 CNS,28.2 µM
same,GI50,ACHN renal,2.54 µM
same,TGI,ACHN renal,27.1 µM
same,GI50,SN12C renal,0.237 µM
same,TGI,SN12C renal,12.1 µM
same,GI50,OVCAR-8 ovarian,1.62 µM
same,TGI,OVCAR-8 ovarian,5.83 µM
same,GI50,HOP-62 NSCLC,3.3 µM
same,TGI,HOP-62 NSCLC,16.5 µM
same,GI50,NCI/ADR-RES ovarian,1.35 µM
same,TGI,NCI/ADR-RES ovarian,2.87 µM
same,GI50,UO-31 renal,0.208 µM
same,TGI,UO-31 renal,9.83 µM
same,TGI,RPMI-8226 leukemia,0.163 µM
same,GI50,EKVX NSCLC,16.1 µM
same,TGI,EKVX NSCLC,66.3 µM
same,GI50,HCT-15 colon,14.1 µM
same,TGI,HCT-15 colon,> 100 µM
same,GI50,LOX IMVI melanoma,1.67 µM
same,TGI,LOX IMVI melanoma,12.8 µM
same,GI50,COLO 205 colon,0.102 µM
same,TGI,COLO 205 colon,1.33 µM
same,GI50,SF-539 CNS,5.05 µM
same,TGI,SF-539 CNS,27.2 µM
same,GI50,HOP-92 NSCLC,0.633 µM
same,TGI,HOP-92 NSCLC,7.03 µM
same,GI50,SNB-75 CNS,12.2 µM
same,TGI,SNB-75 CNS,27 µM
same,GI50,HS 578T breast,0.022 µM
same,TGI,HS 578T breast,0.123 µM
same,GI50,OVCAR-3 ovarian,0.0509 µM
same,TGI,OVCAR-3 ovarian,1.19 µM
